Key:
[1] = test system: clonogenic hematopoietic cells; test: Colony-forming cell (CFC) assays of bone marrow; conditions: day 35, 2 × 10^4 cells/well
Procedure: Whole blood samples were obtained by submandibular bleeding and serum samples were harvested with serum separator tubes (BD Biosciences). Blood count and serum chemistry results were obtained by the Hemagen Analyst Benchtop Chemistry System (Hemagen Diagnostics, Inc. Columbia, Md.). Colony-forming cell (CFC) assays were performed as previously described (18).

SAOS-2 cells = test: MTT assay, SAOS-2 (dose-response, pulse-exposure, combination); format: cell-based, human; conditions: pulse-exposed at ED50 for 2, 9, and 20 hours
Procedure: (§1) 7 human OS cell lines (U2OS, G292, MG-63, HT-161, HOS, SAOS-2, and SJSA) were used in the study. Each cell line except HT-161 was obtained from the American Type Culture Collection (ATCC, Rockville, Md.). HT-161 was obtained from Dr. Emil Bogenmann (13). All cell lines were tested and authenticated prior to use according to cell line verification test recommendations by ATCC. OS cell lines were maintained in DMEM medium (Mediatech Inc., Herndon, Va.) supplemented with 10% fetal bovine serum (FBS; Atlanta Biological, Lawrenceville, Ga.) in a humidified incubator at 37° C. supplied with 5% CO2. Only the cells in exponential growth phase were used in the study.
(§2) Cell growth and survival were measured by 3-(4,5-dimethylthiazol-2-yl)-2,5-diphenyltetrazolium bromide (MTT) assay. […] After 48 hours of incubation, 10 μl of 5 mg/ml MTT solution (Sigma-Aldrich, St. Louis, Mo.) was added to each well and incubated further for 2 hours. […] For pulse-exposure experiments, MG-63 and SAOS-2 cells were seeded in 96-well plates and exposed to CuB at their ED50. After 2, 9, and 20 hours of exposure, cells were washed twice with PBS and incubated further in CuB-free media. Cell growth was checked by MTT assay at 24, 48, and 72 hours.
(§3) Calcusyn 2.0 (Biosoft, Ferguson, Mo.) was used for CI analysis.

cyclin D1 = test: Western blotting, cyclin D1; format: cell-based, human; conditions: MG-63 cells
Procedure: (§4) Changes in protein level by CuB were checked by Western blotting. […] After 2, 9, and 20 hours of exposure, cells were harvested and immediately lysed with RIPA buffer (Millipore—Upstate, Temecula, Calif.) supplemented with protease inhibitor cocktail (Roche, San Francisco, Calif.), 0.5 mM PMSF (Roche), and 50 mM NaF (Sigma). After 20 minutes of incubation on ice, protein concentrations were measured by Bradford assay with Bio Rad protein assay solution (Bio-Rad, Hercules, Calif.) and samples were adjusted to the same protein concentration. Samples were mixed with 2× Laemmli sample buffer (Bio-Rad) with 5% β-mercaptoethanol (Sigma) and incubated at 95° C. for 10 min to denature the protein. After brief incubation on ice, proteins were separated by SDS-PAGE, transferred to nitrocellulose membrane (Sigma), and blotted with antibodies from either Cell Signaling Technology (Danvers, Mass.) or Santa Cruz Biotechnology (Santa Cruz, Calif.). Target proteins were visualized by Supersignal West Dura Substrate (Thermo-Pierce, Rockford, Ill.). GAPDH protein was used as a loading control.

mTOR = mTOR (Homo sapiens, UniProt P42345); test: DARTS analysis, mTOR; format: binding; design: endogenous in cells; host or cells: MG-63 whole-cell lysate; conditions: MG-63 whole-cell lysates; 10, 100, or 1000 nM, 30 min
Procedure: Direct interaction of CuB and mTOR was assessed by DARTS as described in the original article with some modifications (14). Briefly, confluent MG-63 cells were harvested and lysed with lysis buffer (1% Triton X-100, 150 mM NaCl. 100 mM Tris-HCl, pH 7.4, 1 mM EDTA, and 1 mM EGTA, pH 8.0) supplemented with protease inhibitor (Roche, San Francisco, Calif.), 0.2 mM PMSF (Roche), and 0.2 mM Na3VO4 (Sigma). Cell lysates were incubated with 0.1 volume of increasing concentrations (10-1000 nM) of either DMSO or CuB at room temperature for 30 min. Lysates were then proteolyzed with thermolysin (Sigma) at room temperature for 3 min. Reaction was stopped by adding 0.5 M EDTA solution and 2× Laemmli sample buffer (Bio-Rad, Hercules, Calif.) with 5% β-mercaptoethanol (Sigma). Western blotting was performed as described below.

[2] = Body weight and side-effects during xenograft treatment; format: in vivo, mice; conditions: week 1, returned to normal in subsequent weeks
Procedure: All animal experiments strictly followed the guidelines of Cedars-Sinai Medical Center and the National Institute of Health (NIH). Female nu/nu athymic nude mice (5-6 weeks old; average weight 21 g; specific pathogen-free) from Harlan Laboratories (Indianapolis, Ind.) were maintained in pathogen-free condition with sterilized chow and water. 5×10^6 cells of MG-63 cells were mixed with 200 μl of Matrigel solution (BD Biosciences) per injection, and the mixture was injected subcutaneously on the upper flanks of nude mice. After 24 hours, tumor size was measured, and any outliers were ruled out by one-way analysis of variance (ANOVA) test. […] The dose of LD-MTX was the murine equivalent of the human dose of LD-MTX. The conversion was made using dose translation formula by Reagan-Shaw et al., (15). […] Body weights were monitored every 2 days. Tumor size was measured every 2 days, and the tumor volume was calculated using the following formula: A (length)×B (width)×C (height)×0.5236 (16). The experiment was stopped at day 35, and all mice were sacrificed. The presence of metastatic spread was examined macroscopically at the time of autopsy followed by histological examination. At least two tumors from each group were snap-frozen in liquid nitrogen for Western blotting.

ERK protein = target: T1, ERK protein (Homo sapiens, UniProt P28482); test: DARTS analysis, ERK; format: binding; conditions: MG-63 lysates; data not shown
T1 construct: confluent MG-63 cells were harvested and lysed with lysis buffer; endogenous in cells; host or cells: MG-63 whole-cell lysate
T1 sequence (P28482 2-360 limits assumed): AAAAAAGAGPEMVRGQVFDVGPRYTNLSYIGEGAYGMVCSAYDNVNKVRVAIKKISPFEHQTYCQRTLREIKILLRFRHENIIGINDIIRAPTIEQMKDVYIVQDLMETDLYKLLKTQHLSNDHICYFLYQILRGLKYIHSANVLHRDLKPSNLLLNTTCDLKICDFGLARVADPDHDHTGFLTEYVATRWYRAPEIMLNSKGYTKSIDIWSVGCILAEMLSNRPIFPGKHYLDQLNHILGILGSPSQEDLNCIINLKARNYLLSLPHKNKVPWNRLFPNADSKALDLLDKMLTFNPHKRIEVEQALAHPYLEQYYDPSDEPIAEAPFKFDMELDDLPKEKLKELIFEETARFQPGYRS

[3] = test system: phospho-mTOR (S2448) and survivin; test: Western blots from snap-frozen xenograft tumors; format: in vivo; conditions: mice treated with LD-CuB, day 35
Procedure: as §4, with “Target proteins were visualized by Supersignal West Dura Substrate (Thermo-Pierce, Rockford, Ill.). GAPDH protein was used as a loading control.” left out
All animal experiments strictly followed the guidelines of Cedars-Sinai Medical Center and the National Institute of Health (NIH). […] After 24 hours, tumor size was measured, and any outliers were ruled out by one-way analysis of variance (ANOVA) test. […] Body weights were monitored every 2 days. Tumor size was measured every 2 days, and the tumor volume was calculated using the following formula: A (length)×B (width)×C (height)×0.5236 (16). […]

[4] = test system: human OS cell lines (U2OS, G292, MG-63, HT-161, HOS, SAOS-2, and SJSA); test: MTT assay, dose-response in human OS cell lines; format: cell-based
Procedure: as §1, §2

phospho-c-Jun and c-Fos = test: Western blotting, phospho-c-Jun and c-Fos; format: cell-based, human; conditions: MG-63 and SAOS-2 cells
Procedure: as §4

MG-63 cells = test: MTT assay, MG-63 (dose-response, pulse-exposure, combination); format: cell-based, human; conditions: pulse-exposed at ED50 for 2, 9, and 20 hours
Procedure: as §1, §2, §3

CC(=O)OC(C)(C)/C=C/C(=O)[C@](C)(O)[C@H]1[C@H](O)C[C@@]2(C)[C@@H]3CC=C4[C@H](C[C@H](O)C(=O)C4(C)C)[C@]3(C)C(=O)C[C@]12C [CuB, cucurbitacin B]
BFU-E, number of colonies ([1]; HD-CuB 1.0 mg/kg): 8.3 ± 1.6
CFU-GEMM, number of colonies ([1]; HD-CuB 1.0 mg/kg): 3.8 ± 0.8
CFU-GM, number of colonies ([1]; HD-CuB 1.0 mg/kg): 64.6 ± 4.6
BFU-E, number of colonies ([1]; LD-CuB 0.5 mg/kg): 9.7 ± 1.4
CFU-GEMM, number of colonies ([1]; LD-CuB 0.5 mg/kg): 4.2 ± 0.8
CFU-GM, number of colonies ([1]; LD-CuB 0.5 mg/kg): 69.8 ± 3.0
cell death after pulse-exposure (SAOS-2 cells): longer exposure to CuB induced more cell death
levels of cyclin D1 (cyclin D1): Decrease in the levels of cyclin D1 occurred in MG-63
protection of mTOR protein from thermolysin proteolysis (DARTS) (mTOR): dose-dependent protection of mTOR protein from thermolysin proteolysis
initial weight loss ([2]; HD-CuB 1.0 mg/kg): up to 5%
initial weight loss ([2]; LD-CuB 0.5 mg/kg): up to 5%
protection of ERK protein (DARTS) (ERK protein): could not find any evidence that the ERK protein was protected by CuB
phospho-mTOR (S2448) and survivin in tumors [3]: decreased amount of phospho-mTOR (S2448) and its downstream target survivin
cytotoxic activity in human OS cells [4]: dose- and time-dependent
phospho-c-Jun level and c-Fos expression (phospho-c-Jun and c-Fos): Decreased level of phospho-c-Jun and subsequent decrease in c-Fos expression
cell death after pulse-exposure (MG-63 cells): longer exposure to CuB induced more cell death

From patent publication US20120238532A1, “TREATMENT OF HUMAN OSTEOSARCOMA” (CEDARS-SINAI MEDICAL CENTER, priority 2009, published 2012)
